Where a SMILES comes first, the peptide text is derived from it. The star is where a group is joined. Boc = CC(C)(C)OC(=O)*
Legend:
[1] = biological target: Carbonic anhydrase 1 (Homo sapiens) (UniProt P00915); assay: Tested in vitro for activation of Human cloned isozyme carbonic anhydrase I (hCA I)
[2] = biological target: T1, Carbonic anhydrase 4 (Bos taurus) (UniProt Q95323); assay: Tested in vitro for activation of carbonic anhydrase IV (bCA IV), purified from bovine lung microsomes; settings: Microsome
T1 sequence (whole entry): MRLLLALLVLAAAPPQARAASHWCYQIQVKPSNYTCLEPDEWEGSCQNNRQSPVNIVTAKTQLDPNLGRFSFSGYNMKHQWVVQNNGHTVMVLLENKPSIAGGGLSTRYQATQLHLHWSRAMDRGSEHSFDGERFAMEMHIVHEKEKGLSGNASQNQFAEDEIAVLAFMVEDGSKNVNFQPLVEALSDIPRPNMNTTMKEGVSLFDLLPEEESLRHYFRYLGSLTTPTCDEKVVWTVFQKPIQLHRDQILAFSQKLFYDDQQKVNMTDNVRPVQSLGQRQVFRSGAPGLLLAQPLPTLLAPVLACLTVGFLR

[3] = biological target: Carbonic anhydrase 2 (Homo sapiens) (UniProt P00918); assay: Tested in vitro for activation of Human cloned isozyme carbonic anhydrase II (hCA II)

Chain of Carbonic anhydrase 1 (Homo sapiens) (P00915 2-261 limits assumed): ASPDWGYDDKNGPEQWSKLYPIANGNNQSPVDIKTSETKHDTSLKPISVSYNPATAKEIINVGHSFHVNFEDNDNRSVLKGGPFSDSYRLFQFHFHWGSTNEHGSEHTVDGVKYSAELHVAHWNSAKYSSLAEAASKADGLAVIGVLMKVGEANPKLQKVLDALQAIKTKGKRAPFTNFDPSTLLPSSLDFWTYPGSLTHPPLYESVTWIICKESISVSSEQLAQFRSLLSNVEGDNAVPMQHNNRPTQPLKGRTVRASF

Row | KA [1] | KA [2] | KA [3] | Structure (SMILES)
1 | 35 µM | 43 µM | 0.1 µM | N[C@@H](CC(=O)O)C(=O)N[C@@H](CC(=O)O)C(=O)N[C@@H](CC(=O)O)C(=O)N[C@@H](CC(=O)O)C(=O)O (H-DDDD-OH)
2 | > 200 µM | > 200 µM | 145 µM | CC(C)(C)OC(=O)N[C@@H](CC(=O)O)C(=O)N[C@@H](CC(=O)O)C(=O)N[C@@H](CC(=O)O)C(=O)O (Boc-Asp-Asp-Asp-OH)
3 | > 200 µM | > 200 µM | > 200 µM | CC(=O)N[C@@H](CC(=O)O)C(=O)N[C@@H](C)C(=O)O (Ac-Asp-Ala-OH)
4 | 38 µM | 48 µM | 10 µM | C[C@H](NC(=O)[C@@H](N)CC(=O)O)C(=O)N[C@@H](CC(=O)O)C(=O)O (H-Asp-Ala-Asp-OH)
5 | 40 µM | 45 µM | 11 µM | N[C@@H](CC(=O)O)C(=O)N[C@@H](CC(=O)O)C(=O)N[C@@H](CC(=O)O)C(=O)O (H-Asp-Asp-Asp-OH)
6 | 54 µM | 66 µM | 150 µM | C[C@H](N)C(=O)O

The next lines start with the compound.

Row | Structure (SMILES) | KA [1] | KA [2] | KA [3]
7 | CC(C)(C)OC(=O)N[C@@H](CC(=O)O)C(=O)N[C@@H](CC(=O)O)C(=O)O (Boc-Asp-Asp-OH) | > 200 µM | > 200 µM | > 200 µM
8 | C[C@H](NC(=O)[C@@H](N)CC(=O)O)C(=O)O (H-Asp-Ala-OH) | 40 µM | 55 µM | 33 µM
9 | C[C@H](NC(=O)[C@H](CC(=O)O)NC(=O)OC(C)(C)C)C(=O)N[C@@H](CC(=O)O)C(=O)N[C@@H](CC(=O)O)C(=O)O (Boc-DADD-OH) | > 200 µM | > 200 µM | 131 µM
10 | N[C@@H](CC(=O)O)C(=O)O | 48 µM | 60 µM | 130 µM
11 | C[C@H](NC(=O)[C@@H](N)CC(=O)O)C(=O)N[C@@H](CC(=O)O)C(=O)N[C@@H](CC(=O)O)C(=O)O (H-DADD-OH) | 36 µM | 46 µM | 0.2 µM
12 | C[C@H](N)C(=O)N[C@@H](C)C(=O)O (H-Ala-Ala-OH) | 50 µM | 62 µM | 110 µM
13 | CC(=O)N[C@@H](CC(=O)O)C(=O)N[C@@H](CC(=O)O)C(=O)O (Ac-Asp-Asp-OH) | > 200 µM | > 200 µM | > 200 µM
14 | CC(C)(C)OC(=O)N[C@@H](CC(=O)O)C(=O)O | > 200 µM | > 200 µM | > 200 µM
15 | CC(C)(C)OC(=O)N[C@@H](CC(=O)O)C(=O)N[C@@H](CC(=O)O)C(=O)N[C@@H](CC(=O)O)C(=O)N[C@@H](CC(=O)O)C(=O)O (Boc-DDDD-OH) | > 200 µM | > 200 µM | 124 µM
16 | N[C@@H](CC(=O)O)C(=O)N[C@@H](CC(=O)O)C(=O)O (H-Asp-Asp-OH) | 39 µM | 51 µM | 21 µM

— ChEMBL document CHEMBL1135283, “Carbonic anhydrase activators: human isozyme II is strongly activated by oligopeptides incorporating the carboxyterminal sequence of the bicarbonate anion exchanger AE1” (Bioorg Med Chem Lett, 2002)
